According to PMC8580996, “2-Oxoglutarate derivatives can selectively enhance or inhibit the activity of human oxygenases” (Nature Communications, 2021):
“And” between values parts separate entries of the source, which are not always exact repeats. Equal entries are not always repeated.

How the values were obtained:
FIH = FIH (Homo sapiens, UniProt Q9NWT6); experiment: FIH steady-state kinetic parameters (SPE-MS, initial hydroxylation rates); type: biochemical; design: slope of initial reaction rate: unit not given here
Sequence of FIH (Q9NWT6 whole entry): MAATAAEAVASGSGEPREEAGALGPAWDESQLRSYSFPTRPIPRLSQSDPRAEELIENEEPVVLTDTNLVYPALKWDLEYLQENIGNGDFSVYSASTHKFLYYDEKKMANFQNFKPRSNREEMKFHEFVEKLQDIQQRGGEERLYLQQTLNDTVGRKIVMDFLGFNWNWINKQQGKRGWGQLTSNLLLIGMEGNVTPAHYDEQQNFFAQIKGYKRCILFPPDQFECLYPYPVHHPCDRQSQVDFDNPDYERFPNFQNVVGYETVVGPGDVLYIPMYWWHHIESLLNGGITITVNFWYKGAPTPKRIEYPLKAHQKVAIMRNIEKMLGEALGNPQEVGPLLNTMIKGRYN
Procedure: Final 2OG/2OG derivative concentrations are given in Supplementary Figs. 5 and 6. Reactions were monitored with a rate of ~1 sample/40 s using the same SPE-MS configuration as described above. Data were analyzed as described above and the slopes of the initial reaction rates (Supplementary Figs. 5 and 6) fitted to a Michaelis–Menten plot using non-linear regression (GraphPad Prism 5). […]
determine kinetic parameters for 2OG derivatives (continues on the following page). Maximum velocities (vapp ) and Michaelis constants (Kapp) of FIH were determined in independent triplicates for 2OG and the 2OG […]
SPE-MS as described in the Methods section. […]
acid (LAA), and 20 μM ammonium iron(II) sulfate hexahydrate (FAS, (NH4)2Fe(SO4)2·6H2O) in buffer (50 mM […]
Tris, 50 mM NaCl, pH 7.5, 20° C). […]
data are provided as a Source Data file. […]
concentrations of 2OG; (b) hydroxylation rates used to determine kinetic parameters of FIH for 2OG; (c) time […]
3-methyl-2OG (1); (d) hydroxylation rates used to determine kinetic parameters of FIH for 1; (e) time course of […]
2OG (12); (f) hydroxylation rates used to determine kinetic parameters of FIH for 12; (g) time course of the FIH- […]
(h) hydroxylation rates used to determine kinetic parameters of FIH for 14; (i) time course of the FIH-catalyzed […]
(carboxycarbonyl)cyclopentane-1-carboxylic acid (22); (j) hydroxylation rates used to determine kinetic parameters of FIH for 22.
Supplementary Figure 6. Hydroxylation rates of FIH-catalyzed CA1-20 hydroxylations used to determine kinetic parameters for 2OG derivatives (continues on the following page). Maximum velocities (vapp ) and […]
ammonium iron(II) sulfate hexahydrate (FAS, (NH4)2Fe(SO4)2·6H2O) in buffer (50 mM Tris, 50 mM NaCl, pH […]
Source data are provided as a Source […]
of 2OG; (b) hydroxylation rates used to determine kinetic parameters of FIH for 2OG; (c) time course of the FIH-catalyzed hydroxylation reaction of the CA1-20 peptide for the shown concentrations of 3-methyl-2OG (1); (d) hydroxylation rates used to determine kinetic parameters of FIH for 1; (e) time course of the FIH -catalyzed hydroxylation reaction of the CA 1-20 peptide for the shown concentrations of 4 -methyl-2OG (12); (f) hydroxylation rates used to determine kinetic parameters of FIH for 12; (g) time course of the FIH-catalyzed hydroxylation reaction of the CA1-20 peptide for the shown concentrations of 4-ethyl-2OG (14); (h) hydroxylation rates used to determine kinetic parameters of FIH for 14; (i) time course of the FIH-catalyzed hydroxylation reaction of the CA1-20 peptide for the shown concentrations of 3-(carboxycarbonyl)cyclopentane-1-carboxylic acid (22); (j) hydroxylation rates used to determine kinetic parameters of FIH for 22.

AspH = target: T1, AspH (Homo sapiens, UniProt Q12797); experiment: Competition assay in a single reaction vessel, AspH-catalyzed hydroxylation (SPE-MS); type: biochemical; conditions: for substrate hydroxylation (% conversion): AspH
T1 construct: the tetratricopeptide repeat domain (His6-AspH315-758), was produced and purified as previously reported; made in house
T1 sequence (Q12797 315-758): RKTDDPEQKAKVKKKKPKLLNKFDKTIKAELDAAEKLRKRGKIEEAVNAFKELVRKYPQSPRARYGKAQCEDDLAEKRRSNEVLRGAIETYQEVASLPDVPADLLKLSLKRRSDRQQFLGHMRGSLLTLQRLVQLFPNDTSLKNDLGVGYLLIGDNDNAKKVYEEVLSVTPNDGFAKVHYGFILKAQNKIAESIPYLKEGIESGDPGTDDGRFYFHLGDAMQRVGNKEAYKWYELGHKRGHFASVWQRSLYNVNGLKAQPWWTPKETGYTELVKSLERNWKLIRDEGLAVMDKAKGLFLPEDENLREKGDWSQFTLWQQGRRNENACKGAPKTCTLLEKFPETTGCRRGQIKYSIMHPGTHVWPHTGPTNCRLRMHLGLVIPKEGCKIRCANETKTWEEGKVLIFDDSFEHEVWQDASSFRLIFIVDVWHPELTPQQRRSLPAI
Procedure: Mean of three independent runs (n = 3; mean ± SD). […] Cosubstrates: a 20 μM 2OG; b 20 μM 2OG; c 20 μM 1; d 20 μM 12; e 20 μM 12 and 100 μM 2OG; f 100 μM 14. Source data are provided as a Source Data file.
Mean of three independent runs (n = 3; mean ± SD). […] Source data are provided as a Source Data file.
Peptide turnover was monitored by SPE-MS using the same instrument configuration (with the exception that the peptides were eluted from the SPE cartridge with 0.1%v/v aqueous formic acid in 80/20 v/v acetonitrile/water) as described above.
FIH and AspH-catalyzed peptide hydroxylations were analyzed simultaneously using SPE-MS as described in the
Methods section; competition experiments were performed in the same reaction vessel using equimolar 2OG
oxygenase and substrate concentrations. […]
Source data are provided as a Source Data file.
FIH and AspH-catalyzed peptide hydroxylations were analyzed simultaneously using SPE-
MS as described in the Methods section; competition experiments were performed in the same reaction vessel
using equimolar 2OG oxygenase and substrate concentrations. […]
2OG, 100 μM 14. Source data are provided as a Source Data file.

SPE-MS determined concentration of hydroxylated HIF-1a peptide (FIH; 0.25 uM compound 12, time 0.699833 min): 0.04437 µM and 0.04741 µM and 0.03831 µM
SPE-MS determined concentration of hydroxylated HIF-1a peptide (FIH; 0.25 uM compound 12, time 2.098 min): 0.08198 µM and 0.1152 µM and 0.1017 µM
SPE-MS determined concentration of hydroxylated HIF-1a peptide (FIH; 0.5 uM compound 12, time 0.699833 min): 0.06422 µM and 0.08062 µM and 0.07548 µM
SPE-MS determined concentration of hydroxylated HIF-1a peptide (FIH; 0.5 uM compound 12, time 2.098 min): 0.1727 µM and 0.153 µM and 0.1556 µM
SPE-MS determined concentration of hydroxylated HIF-1a peptide (FIH; 0.5 uM compound 12, time 2.797 min): 0.211 µM
SPE-MS determined concentration of hydroxylated HIF-1a peptide (FIH; 1 uM compound 12, time 0.699833 min): 0.1124 µM and 0.1213 µM and 0.1053 µM
SPE-MS determined concentration of hydroxylated HIF-1a peptide (FIH; 1 uM compound 12, time 2.098 min): 0.2072 µM and 0.2617 µM and 0.2659 µM
SPE-MS determined concentration of hydroxylated HIF-1a peptide (FIH; 1 uM compound 12, time 2.797 min): 0.2567 µM and 0.3212 µM and 0.319 µM
SPE-MS determined concentration of hydroxylated HIF-1a peptide (FIH; 2 uM compound 12, time 0.699833 min): 0.1658 µM and 0.1554 µM and 0.162 µM
SPE-MS determined concentration of hydroxylated HIF-1a peptide (FIH; 2 uM compound 12, time 2.098 min): 0.3451 µM and 0.3558 µM and 0.3835 µM
SPE-MS determined concentration of hydroxylated HIF-1a peptide (FIH; 2 uM compound 12, time 2.797 min): 0.4027 µM and 0.4334 µM and 0.458 µM
SPE-MS determined concentration of hydroxylated HIF-1a peptide (FIH; 4 uM compound 12, time 0.699833 min): 0.2736 µM and 0.2242 µM and 0.2062 µM
SPE-MS determined concentration of hydroxylated HIF-1a peptide (FIH; 4 uM compound 12, time 2.098 min): 0.6118 µM and 0.4979 µM and 0.4845 µM
SPE-MS determined concentration of hydroxylated HIF-1a peptide (FIH; 4 uM compound 12, time 2.797 min): 0.7774 µM and 0.6268 µM and 0.6241 µM
SPE-MS determined concentration of hydroxylated HIF-1a peptide (FIH; 8 uM compound 12, time 0 min): 0.06164 µM and 0.06905 µM and 0.05066 µM
SPE-MS determined concentration of hydroxylated HIF-1a peptide (FIH; 8 uM compound 12, time 0.699833 min): 0.2593 µM and 0.272 µM and 0.2286 µM
SPE-MS determined concentration of hydroxylated HIF-1a peptide (FIH; 8 uM compound 12, time 2.098 min): 0.6058 µM and 0.6256 µM and 0.5278 µM
SPE-MS determined concentration of hydroxylated HIF-1a peptide (FIH; 8 uM compound 12, time 2.797 min): 0.7712 µM and 0.7937 µM and 0.6846 µM
SPE-MS determined concentration of hydroxylated HIF-1a peptide (FIH; 16 uM compound 12, time 0 min): 0.09407 µM and 0.05485 µM and 0.06025 µM
SPE-MS determined concentration of hydroxylated HIF-1a peptide (FIH; 16 uM compound 12, time 0.699833 min): 0.2985 µM and 0.2562 µM and 0.2621 µM
SPE-MS determined concentration of hydroxylated HIF-1a peptide (FIH; 16 uM compound 12, time 2.098 min): 0.6815 µM and 0.5982 µM and 0.6264 µM
SPE-MS determined concentration of hydroxylated HIF-1a peptide (FIH; 16 uM compound 12, time 2.797 min): 0.848 µM and 0.7909 µM and 0.7891 µM
SPE-MS determined concentration of hydroxylated HIF-1a peptide (FIH; 32 uM compound 12, time 0 min): 0.0933 µM and 0.07278 µM and 0.06334 µM
SPE-MS determined concentration of hydroxylated HIF-1a peptide (FIH; 32 uM compound 12, time 0.699833 min): 0.2746 µM and 0.2712 µM and 0.2731 µM
SPE-MS determined concentration of hydroxylated HIF-1a peptide (FIH; 32 uM compound 12, time 2.098 min): 0.594 µM and 0.6472 µM and 0.6437 µM
SPE-MS determined concentration of hydroxylated HIF-1a peptide (FIH; 32 uM compound 12, time 2.797 min): 0.7489 µM and 0.8116 µM and 0.8049 µM
slope of initial reaction rate (FIH; CA1-20, 0.25 μM 12): 0.003176 and 0.003306
slope of initial reaction rate (FIH; CA1-20, 0.5 μM 12): 0.006776 and 0.007676 and 0.008102
slope of initial reaction rate (FIH; CA1-20, 1 μM 12): 0.01054 and 0.007937 and 0.01116
slope of initial reaction rate (FIH; CA1-20, 2 μM 12): 0.01217 and 0.0142 and 0.01263
slope of initial reaction rate (FIH; CA1-20, 4 μM 12): 0.01597 and 0.01096 and 0.0129
slope of initial reaction rate (FIH; CA1-20, 8 μM 12): 0.01648 and 0.01721 and 0.01973
slope of initial reaction rate (FIH; HIF-1a788-822, 0.25 μM 12): 0.000487 and 0.000839 and 0.000746
slope of initial reaction rate (FIH; HIF-1a788-822, 0.5 μM 12): 0.000918 and 0.001031 and 0.00127
slope of initial reaction rate (FIH; HIF-1a788-822, 1 μM 12): 0.001321 and 0.001828 and 0.001913
slope of initial reaction rate (FIH; HIF-1a788-822, 2 μM 12): 0.00207 and 0.002424 and 0.002687
slope of initial reaction rate (FIH; HIF-1a788-822, 4 μM 12): 0.004223 and 0.003389 and 0.00353
slope of initial reaction rate (FIH; HIF-1a788-822, 8 μM 12): 0.004209 and 0.004298 and 0.003737
slope of initial reaction rate (FIH; HIF-1a788-822, 16 μM 12): 0.004508 and 0.004326 and 0.004345
slope of initial reaction rate (FIH; HIF-1a788-822, 32 μM 12): 0.003886 and 0.004421 and 0.004419
time to complete AspH-catalyzed hydroxylation of hFX-EGFD1_86–124-4Ser (AspH; Fig 2e, 20 μM 12 and 100 μM 2OG): ~ 2 min
substrate hydroxylation (% conversion) (AspH; Fig 2e, 20 μM 12 and 100 μM 2OG, 1.918 min): 100
substrate hydroxylation (% conversion) (AspH; Fig 2e, 20 μM 12 and 100 μM 2OG, 2.15883 min): 100
substrate hydroxylation (% conversion) (AspH; Fig 2e, 20 μM 12 and 100 μM 2OG, 2.6405 min): 100
substrate hydroxylation (% conversion) (AspH; Fig 2e, 20 μM 12 and 100 μM 2OG, 2.88117 min): 100
substrate hydroxylation (% conversion) (AspH; Fig 2e, 20 μM 12 and 100 μM 2OG, 3.12267 min): 100
substrate hydroxylation (% conversion) (AspH; Fig 2e, 20 μM 12 and 100 μM 2OG, 3.36583 min): 100
substrate hydroxylation (% conversion) (AspH; Fig 2e, 20 μM 12 and 100 μM 2OG, 3.60733 min): 100
substrate hydroxylation (% conversion) (AspH; Fig 2e, 20 μM 12 and 100 μM 2OG, […]): 100
AspH-catalyzed hFX-EGFD1_86–124-4Ser hydroxylation (AspH; Fig 2d, 20 μM 12, after ~10 min): ~ 90%
Compound: CC(CC(=O)C(=O)O)C(=O)O (centres unmarked) [compound 12, 4-methyl-2OG]
